We go through 22 compounds from patent US12162893B2 (Erasca, Inc., priority 2020, dated 2024).

This assay concerns the target T1, mutant G12C K-RAS (Homo sapiens, UniProt P01116, G12C).
T1 construct: made in house; host or cells: E. coli BL21
The assay can be described thus: covalent adduct formation (CAF) with mutant G12C K-RAS. It counts as binding. Further details: CAF: unit not given here. Conditions: for CAF: Table 3, Pyridone Core-Morpholine Unsubstituted; for CAF / % CAF (60 min): after 60 minutes at 10 micromolar; for % CAF @ 10 μM,1 h: Table 6. The procedure:
Embodiments disclosed herein are further illustrated by the following examples in Tables 1-4 and the Examples hereinbelow. The Tables indicate the compound number, structure, the observed mass spectral molecular weight peak, and covalent adduct formation (CAF) with a mutant G12C K-RAS after 60 minutes at a concentration of 10 micromolar.

Setting [1] is: Table 1, Pyrimidone Core-Morpholine Unsubstituted.

Molecules are shown by their SMILES.

Compound `C=CC(=O)N1C[C@H](C)N(c2cc(=O)n3c4c(c(-c5ccc(F)cc5F)c(Cl)cc24)OCC3)C[C@H]1C` [Example 44, 7-((2S,5R)-4-acryloyl-2,5-dimethylpiperazin-1-yl)-9-chloro-10-(2,4-difluorophenyl)-2H-[1,4]oxazino[2,3,4-ij]quinolin-5(3H)-one] registered a CAF of 4.2.
Regarding `C=CC(=O)N1C[C@H](C)N(c2nc(=O)n3c4c(c(-c5ccc(F)cc5F)c(Cl)cc24)OCC3)C[C@H]1C` [Example 11, 7-((2S,5R)-4-acryloyl-2,5-dimethylpiperazin-1-yl)-9-chloro-10-(2,4-difluorophenyl)-2H-[1,4]oxazino[2,3,4-ij]quinazolin-5(3H)-one], the “% CAF (60 min)” value under setting [1] stood at 68%.
As to `C=CC(=O)N1C[C@H](C)N(c2nc(=O)n3c4c(c(-c5ccc(F)cc5F)c(Cl)cc24)OC[C@H]3CCCN2CCC(F)(F)C2)C[C@H]1C` [Example 271, (3R)-7-((2S,5R)-4-acryloyl-2,5-dimethylpiperazin-1-yl)-9-chloro-10-(2,4-difluorophenyl)-3-(3-(3,3-difluoropyrrolidin-1-yl)propyl)-2,3-dihydro-5H-[1,4]oxazino[2,3,4-ij]quinazolin-5-one], the “% CAF @ 10 μM,1 h” value was 93.6%.
As to `C=CC(=O)N1C[C@H](C)N(c2nc(=O)n3c4c(c(-c5ccc(F)cc5F)c(Cl)cc24)OC[C@H]3CCCN2CCN(C)C(=O)C2)C[C@H]1C` [Example 283, (3R)-7-((2S,5R)-4-acryloyl-2,5-dimethylpiperazin-1-yl)-9-chloro-10-(2,4-difluorophenyl)-3-(3-(4-methyl-3-oxopiperazin-1-yl)propyl)-2,3-dihydro-5H-[1,4]oxazino[2,3,4-ij]quinazolin-5-one], the “% CAF @ 10 μM,1 h” value is recorded as 92.4%.
As to `C=CC(=O)N1C[C@H](C)N(c2nc(=O)n3c4c(c(-c5ccc(F)cc5F)c(Cl)cc24)OC[C@H]3CCCN2CC(F)(F)C2)C[C@H]1C` [Example 298, (3R)-7-((2S,5R)-4-acryloyl-2,5-dimethylpiperazin-1-yl)-9-chloro-3-(3-(3,3-difluoroazetidin-1-yl)propyl)-10-(2,4-difluorophenyl)-2,3-dihydro-5H-[1,4]oxazino[2,3,4-ij]quinazolin-5-one], the “% CAF @ 10 μM,1 h” value was 68%.
Turning to `C=CC(=O)N1C[C@H](C)N(c2nc(=O)n3c4c(c(-c5c(O)cccc5F)c(Cl)cc24)OC[C@@H]3Cn2ccnc2)C[C@H]1C` (atropisomer, axis not shown) [Example 248, (3S)-3-((1H-imidazol-1-yl)methyl)-7-((2S,5R)-4-acryloyl-2,5-dimethylpiperazin-1-yl)-9-chloro-10-(2-fluoro-6-hydroxyphenyl)-2H-[1,4]oxazino[2,3,4-ij]quinazolin-5(3H)-one], the “% CAF @ 10 μM,1 h” value turned out to be 2.3%.
Regarding `C=CC(=O)N1C[C@H](C)N(c2nc(=O)n3c4c(c(-c5ccc(F)cc5F)c(Cl)cc24)OC[C@H]3CN2C[C@H]3CC[C@@H](C2)N3C2COC2)C[C@H]1C` [Example 291, (3R)-7-((2S,5R)-4-acryloyl-2,5-dimethylpiperazin-1-yl)-9-chloro-10-(2,4-difluorophenyl)-3-(((1R,5S)-8-(oxetan-3-yl)-3,8-diazabicyclo[3.2.1]octan-3-yl)methyl)-2H-[1,4]oxazino[2,3,4-ij]quinazolin-5(3H)-one], the “% CAF @ 10 μM,1 h” value was found to be 88.8%.
Regarding `C=CC(=O)N1C[C@H](C)N(c2nc(=O)n3c4c(c(-c5cccc6cccc(Cl)c56)ccc24)OCC3)C[C@H]1C` [Example 15, 7-((2S,5R)-4-acryloyl-2,5-dimethylpiperazin-1-yl)-10-(8-chloronaphthalen-1-yl)-2H-[1,4]oxazino[2,3,4-ij]quinazolin-5(3H)-one], the “% CAF (60 min)” value under setting [1] amounted to 0%.
As to `C=CC(=O)N1CCN(c2nc(=O)n3c4c(c(-c5c(O)cccc5F)c(Cl)cc24)OC[C@@H]3CN2CCOCC2)[C@@H](C)C1` [Example 196, (3S,10S)-7-((S)-4-acryloyl-2-methylpiperazin-1-yl)-9-chloro-10-(2-fluoro-6-hydroxyphenyl)-3-(morpholinomethyl)-2,3-dihydro-5H-[1,4]oxazino[2,3,4-ij]quinazolin-5-one], the “% CAF @ 10 μM,1 h” value was found to be 97.6%.
`C=CC(=O)N1C[C@H](C)N(c2c(C#N)c(=O)n3c4c(c(-c5c(O)cccc5F)c(Cl)cc24)OCC3)C[C@H]1C` [Example 41, 7-((2S,5R)-4-acryloyl-2,5-dimethylpiperazin-1-yl)-9-chloro-10-(2-fluoro-6-hydroxyphenyl)-5-oxo-3,5-dihydro-2H-[1,4]oxazino[2,3,4-ij]quinoline-6-carbonitrile] yielded a CAF of 22.3.
`C=CC(=O)N1C[C@H](C)N(c2nc(=O)n3c4c(c(-c5ccc(F)cc5F)c(Cl)cc24)OC[C@@H]3CN2CCN(C)CC2=O)C[C@H]1C` [Example 274, (3S)-7-((2S,5R)-4-acryloyl-2,5-dimethylpiperazin-1-yl)-9-chloro-10-(2,4-difluorophenyl)-3-((4-methyl-2-oxopiperazin-1-yl)methyl)-2,3-dihydro-5H-[1,4]oxazino[2,3,4-ij]quinazolin-5-one]: the “% CAF @ 10 μM,1 h” value worked out at 67%.
For the compound `C=CC(=O)N1C[C@H](C)N(c2nc(=O)n3c4c(c(-c5ccc(Cl)cc5F)ccc24)OCC3)C[C@H]1C` [Example 17, 7-((2S,5R)-4-acryloyl-2,5-dimethylpiperazin-1-yl)-10-(4-chloro-2-fluorophenyl)-2H-[1,4]oxazino[2,3,4-ij]quinazolin-5(3H)-one], the “% CAF (60 min)” value under setting [1] was determined as 2%.
Regarding `C=CC(=O)N1C[C@H](C)N(c2nc(=O)n3c4c(c(-c5ccc(F)cc5F)c(C5CC5)cc24)OC[C@H]3CCCN2C[C@@H]3C[C@H]2CO3)C[C@H]1C` [Example 323, (3R)-3-(3-((1S,4S)-2-oxa-5-azabicyclo[2.2.1]heptan-5-yl)propyl)-7-((2S,5R)-4-acryloyl-2,5-dimethylpiperazin-1-yl)-9-cyclopropyl-10-(2,4-difluorophenyl)-2,3-dihydro-5H-[1,4]oxazino[2,3,4-ij]quinazolin-5-one], the “% CAF @ 10 μM,1 h” value is listed as 81.1%.
Regarding `C=CC(=O)N1C[C@H](C)N(c2nc(=O)n3c4c(c(-c5ccc(F)cc5F)c(Cl)cc24)OC[C@H]3COC2CCN(C)CC2)C[C@H]1C` [Example 297, (3R)-7-((2S,5R)-4-acryloyl-2,5-dimethylpiperazin-1-yl)-9-chloro-10-(2,4-difluorophenyl)-3-(((1-methylpiperidin-4-yl)oxy)methyl)-2H-[1,4]oxazino[2,3,4-ij]quinazolin-5(3H)-one], the “% CAF @ 10 μM,1 h” value was found to be 90.5%.
For `C=CC(=O)N1CCN(c2nc(=O)n3c4c(c(-c5c(O)cccc5F)c(Cl)cc24)OC[C@H]3CO)[C@@H](C)C1` [Example 22, (3R,10S)-7-((S)-4-acryloyl-2-methylpiperazin-1-yl)-9-chloro-10-(2-fluoro-6-hydroxyphenyl)-3-(hydroxymethyl)-2H-[1,4]oxazino[2,3,4-ij]quinazolin-5(3H)-one], under “Table 2, Pyrimidone Core-Morpholine Substituted”, the “% CAF (60 min)” value worked out at 87.6%.
For `C=CC(=O)N1C[C@H](C)N(c2nc(=O)n3c4c(c(-c5c(F)ccc6cc[nH]c(=O)c56)ccc24)OCC3)C[C@H]1C` [Example 224, 7-((2S,5R)-4-acryloyl-2,5-dimethylpiperazin-1-yl)-10-(7-fluoro-1-oxo-1,2-dihydroisoquinolin-8-yl)-2,3-dihydro-5H-[1,4]oxazino[2,3,4-ij]quinazolin-5-one], the “% CAF @ 10 μM,1 h” value is recorded as 0%.
The same measure, in the same setting: then `C=CC(=O)N1C[C@H](C)N(c2nc(=O)n3c4c(c(-c5ccc(F)cc5F)c(C#N)cc24)OC[C@H]3CCCN2C[C@@H]3C[C@H]2CO3)C[C@H]1C` [Example 332, (3R)-3-(3-((1S,4S)-2-oxa-5-azabicyclo[2.2.1]heptan-5-yl)propyl)-7-((2S,5R)-4-acryloyl-2,5-dimethylpiperazin-1-yl)-10-(2,4-difluorophenyl)-5-oxo-2,3-dihydro-5H-[1,4]oxazino[2,3,4-ij]quinazoline-9-carbonitrile], with 56.9%.
As for `C=CC(=O)N1C[C@H](C)N(c2nc(=O)n3c4c(c(-c5ccc(F)cc5F)c(Cl)cc24)OC[C@@H]3CN2CCC(F)(F)C2)C[C@H]1C` (stereo in doubt) [Example 202], the “% CAF @ 10 μM,1 h” value was found to be 34.2%.
Same read-out and setting: the figure for `C=CC(=O)N1C[C@H](C)N(c2nc(=O)n3c4c(c(-c5ccc(F)cc5F)c(Cl)cc24)OCC3CN2CCC(F)(F)C2)C[C@H]1C` (stereo in doubt) [Example 207, (3R)-7-((2S,5R)-4-acryloyl-2,5-dimethylpiperazin-1-yl)-9-chloro-10-(2,4-difluorophenyl)-3-((3,3-difluoropyrrolidin-1-yl)methyl)-2H-[1,4]oxazino[2,3,4-ij]quinazolin-5(3H)-one] is 85.6%; for `C=CC(=O)N1C[C@H](C)N(c2nc(=O)n3c4c(c(-c5ccc(F)cc5F)c(Cl)cc24)O[C@H](CCCO)C3)C[C@H]1C` [Example 249, (2R)-7-((2S,5R)-4-acryloyl-2,5-dimethylpiperazin-1-yl)-9-chloro-10-(2,4-difluorophenyl)-2-(3-hydroxypropyl)-2,3-dihydro-5H-[1,4]oxazino[2,3,4-ij]quinazolin-5-one] it is 51.2%.
As to `C=CC(=O)N1C[C@H](C)N(c2nc(=O)n3c4c(c(-c5cc(F)cc(Cl)c5)ccc24)OCC3)C[C@H]1C` [Example 16, 7-((2S,5R)-4-acryloyl-2,5-dimethylpiperazin-1-yl)-10-(3-chloro-5-fluorophenyl)-2H-[1,4]oxazino[2,3,4-ij]quinazolin-5(3H)-one], under setting [1], the “% CAF (60 min)” value came to 0%.
Regarding `C=CC(=O)N1C[C@H](C)N(c2nc(=O)n3c4c(c(-c5ccc(F)cc5F)c(Cl)cc24)OC[C@@H]3CN(C(=O)[C@@H]2CCCN2C)C2CC2)C[C@H]1C` [Example 310, (2S)-N-(((3S)-7-((2S,5R)-4-acryloyl-2,5-dimethylpiperazin-1-yl)-9-chloro-10-(2,4-difluorophenyl)-5-oxo-2,3-dihydro-5H-[1,4]oxazino[2,3,4-ij]quinazolin-3-yl)methyl)-N-cyclopropyl-1-methylpyrrolidine-2-carboxamide], the “% CAF @ 10 μM,1 h” value was determined as 53.4%.
